Test results published in the CheMixHub viscosity set.
± gives the uncertainty stated by the source.

Test: xn = mol fraction of the nth substance listed

BrC(Br)Br + CN(C)C=O
Conditions	viscosity [mPa·s]
298 K, 101.3 kPa, x1 = 0.1418	1.075 ± 0.014
298 K, 101.3 kPa, x1 = 0.2704	1.355 ± 0.018
298 K, 101.3 kPa, x1 = 0.463	1.794 ± 0.024
298 K, 101.3 kPa, x1 = 0.6145	2.007 ± 0.026
298 K, 101.3 kPa, x1 = 0.7144	2.037 ± 0.027
298 K, 101.3 kPa, x1 = 0.818	2.016 ± 0.026
298.15 K, 101 kPa, x1 = 0.1458	1.048 ± 0.01
298.15 K, 101 kPa, x1 = 0.1971	1.237 ± 0.011
298.15 K, 101 kPa, x1 = 0.2942	1.486 ± 0.014
298.15 K, 101 kPa, x1 = 0.3961	1.703 ± 0.016
298.15 K, 101 kPa, x1 = 0.4962	1.956 ± 0.018
298.15 K, 101 kPa, x1 = 0.5972	2.102 ± 0.019
298.15 K, 101 kPa, x1 = 0.6959	2.122 ± 0.019
298.15 K, 101 kPa, x1 = 0.7985	2.147 ± 0.019
298.15 K, 101 kPa, x1 = 0.8992	2.074 ± 0.019
303.15 K, 101 kPa, x1 = 0.1458	0.9843 ± 0.0094
303.15 K, 101 kPa, x1 = 0.1971	1.162 ± 0.011
303.15 K, 101 kPa, x1 = 0.2942	1.371 ± 0.013
303.15 K, 101 kPa, x1 = 0.3961	1.567 ± 0.015
303.15 K, 101 kPa, x1 = 0.4962	1.793 ± 0.017
303.15 K, 101 kPa, x1 = 0.5972	1.927 ± 0.018
303.15 K, 101 kPa, x1 = 0.6959	1.953 ± 0.018
303.15 K, 101 kPa, x1 = 0.7985	1.966 ± 0.018
303.15 K, 101 kPa, x1 = 0.8992	1.934 ± 0.018
308.15 K, 101 kPa, x1 = 0.1458	0.9091 ± 0.0089
308.15 K, 101 kPa, x1 = 0.1971	1.066 ± 0.01
308.15 K, 101 kPa, x1 = 0.2942	1.267 ± 0.012
308.15 K, 101 kPa, x1 = 0.3961	1.443 ± 0.013
308.15 K, 101 kPa, x1 = 0.4962	1.643 ± 0.015
308.15 K, 101 kPa, x1 = 0.5972	1.765 ± 0.017
308.15 K, 101 kPa, x1 = 0.6959	1.801 ± 0.017
308.15 K, 101 kPa, x1 = 0.7985	1.839 ± 0.017
308.15 K, 101 kPa, x1 = 0.8992	1.797 ± 0.016
313.15 K, 101 kPa, x1 = 0.1458	0.8479 ± 0.0082
313.15 K, 101 kPa, x1 = 0.1971	1 ± 0.0098
313.15 K, 101 kPa, x1 = 0.2942	1.173 ± 0.011
313.15 K, 101 kPa, x1 = 0.3961	1.329 ± 0.012
313.15 K, 101 kPa, x1 = 0.4962	1.513 ± 0.015
313.15 K, 101 kPa, x1 = 0.5972	1.622 ± 0.016
313.15 K, 101 kPa, x1 = 0.6959	1.66 ± 0.015
313.15 K, 101 kPa, x1 = 0.7985	1.705 ± 0.016
313.15 K, 101 kPa, x1 = 0.8992	1.679 ± 0.015
318 K, 101.33 kPa, x1 = 0.1317	0.819 ± 0.039
318 K, 101.33 kPa, x1 = 0.2705	1.046 ± 0.039
318 K, 101.33 kPa, x1 = 0.4636	1.313 ± 0.039
318 K, 101.33 kPa, x1 = 0.6142	1.471 ± 0.04
318 K, 101.33 kPa, x1 = 0.7204	1.518 ± 0.04
318 K, 101.33 kPa, x1 = 0.8296	1.519 ± 0.04

CCN(CC)CCO.Cl + OCCO
viscosity [mPa·s], 101 kPa
Conditions	293.15 K	298.15 K	303.15 K	308.15 K	313.15 K	318.15 K	323.15 K
x1 = 0.25	37.6 ± 3	–	29.6 ± 2.4	–	23.6 ± 1.9	–	19.1 ± 1.5
x1 = 0.333	–	50.45 ± 1	40.68 ± 0.9	32.04 ± 0.7	26.28 ± 0.57	21.97 ± 0.48	18.51 ± 0.4

BrC(Br)Br + CCC(C)=O
viscosity [mPa·s]
Conditions	x1 = 0.1474	x1 = 0.1586	x1 = 0.3005	x1 = 0.3052	x1 = 0.5009	x1 = 0.5019	x1 = 0.6499	x1 = 0.6501	x1 = 0.8432	x1 = 0.8502
298 K, 101.3 kPa	–	0.583 ± 0.008	–	0.768 ± 0.01	1.072 ± 0.014	–	–	1.318 ± 0.017	1.626 ± 0.021	–
318 K, 101.33 kPa	0.4678 ± 0.039	–	0.6228 ± 0.039	–	–	0.8523 ± 0.039	1.038 ± 0.039	–	–	1.298 ± 0.04

O=S(=O)([O-])c1ccccc1.[Na+] + O
viscosity [mPa·s], 101 kPa
Conditions	x1 = 9e-05	x1 = 0.00018	x1 = 0.0009	x1 = 0.0018	x1 = 0.00448	x1 = 0.00893	x1 = 0.0133	x1 = 0.0177
298.15 K	0.898 ± 0.009	0.899 ± 0.009	0.915 ± 0.009	0.932 ± 0.009	0.98 ± 0.01	1.073 ± 0.011	1.17 ± 0.012	1.273 ± 0.013
318.15 K	0.598 ± 0.006	0.599 ± 0.006	0.609 ± 0.006	0.619 ± 0.006	0.648 ± 0.006	0.705 ± 0.007	0.762 ± 0.007	0.825 ± 0.008

CCOC(F)(F)C(F)(C(F)(F)F)C(F)(F)F + CCOC(F)(F)C(F)(F)C(F)(F)C(F)(F)F
100 kPa, x2 = 0.422
Conditions	viscosity [mPa·s]
298.16 K	0.6423 ± 0.014
303.18 K	0.5987 ± 0.013

BrC(Br)Br + CS(C)=O
Conditions	viscosity [mPa·s]
298 K, 101.3 kPa, x1 = 0.0899	2.155 ± 0.028
298 K, 101.3 kPa, x1 = 0.1708	2.427 ± 0.032
298 K, 101.3 kPa, x1 = 0.3448	2.816 ± 0.037
298 K, 101.3 kPa, x1 = 0.4446	2.945 ± 0.039
298 K, 101.3 kPa, x1 = 0.5453	2.944 ± 0.039
298 K, 101.3 kPa, x1 = 0.6466	2.762 ± 0.037
298 K, 101.3 kPa, x1 = 0.7553	2.544 ± 0.034
298 K, 101.3 kPa, x1 = 0.8619	2.192 ± 0.029
318 K, 101.33 kPa, x1 = 0.1216	1.568 ± 0.04
318 K, 101.33 kPa, x1 = 0.2541	1.787 ± 0.04
318 K, 101.33 kPa, x1 = 0.443	1.978 ± 0.04
318 K, 101.33 kPa, x1 = 0.5441	1.982 ± 0.04
318 K, 101.33 kPa, x1 = 0.5955	1.983 ± 0.04
318 K, 101.33 kPa, x1 = 0.8193	1.716 ± 0.04

BrC(Br)Br + CCCCCO
viscosity [mPa·s], 101.3 kPa
Conditions	x1 = 0.097	x1 = 0.2	x1 = 0.296	x1 = 0.4	x1 = 0.499	x1 = 0.6	x1 = 0.701	x1 = 0.8	x1 = 0.9
298.15 K	3.255 ± 0.04	3.006 ± 0.037	2.729 ± 0.034	2.477 ± 0.031	2.275 ± 0.028	2.114 ± 0.026	1.997 ± 0.025	1.91 ± 0.024	1.873 ± 0.024
303.15 K	2.831 ± 0.035	2.621 ± 0.032	2.399 ± 0.03	2.2 ± 0.027	2.039 ± 0.026	1.928 ± 0.024	1.822 ± 0.023	1.762 ± 0.022	1.742 ± 0.022
308.15 K	2.452 ± 0.03	2.296 ± 0.029	2.113 ± 0.026	1.954 ± 0.025	1.829 ± 0.023	1.741 ± 0.022	1.67 ± 0.021	1.631 ± 0.021	1.628 ± 0.021
